From patent US12584916B2, “Method for measuring the modulation of the activation of a G protein-coupled receptor with GTP analogues” (CISBIO BIOASSAYS, priority 2019, dated 2026)

B1: DSV36S: anti-G-alphai antibody of Cisbio Bioassays, VH SEQ ID NO: 15 and VL SEQ ID NO: 16; used labeled with d2 or Lumi4Tb (antibody, V domains shown)
VH: EVQLQQSGAELVRPGALVKLSCKASGFNIKDYYMHWVKQRPEQGLEWIGWIDPENGNTIYDPKFQGKASITADTSSNTAYLQLSSLTSEDTAVYYCTRGGGYYSDWYFDVWGAGTTVTVSS
VL: QIVLTQSPAIMSASPGEKVTMTCSASSSVSYMHWYQQKSGTSPKRWIYDTSKLASGVPARFSGSGSGTSYSLTISSMEAEDAATYYCQQWSSNPPITFGAGTKLELK
modifications: d2 or Lumi4Tb label; Heavy chain variable domain (VH); Light chain variable domain (VL)

What was measured:
Delta Opioid GPCR = molecular target: T1, Delta Opioid GPCR (Homo sapiens, UniProt P41143); assay: Activation test according to format 2A on Delta Opioid GPCR (antagonist mode); type: biochemical; details: Example 15; SNC162 200 nM fixed; increasing antagonist concentration; GTPgN-octyl-C2 6 nM + DSV36S-d2 10 nM; CHO-DOR membranes; NaCl 300 mM; GDP 0.5 μM
T1 construct: purchased Perkin Elmer or Euroscreen
T1 sequence (P41143 whole entry): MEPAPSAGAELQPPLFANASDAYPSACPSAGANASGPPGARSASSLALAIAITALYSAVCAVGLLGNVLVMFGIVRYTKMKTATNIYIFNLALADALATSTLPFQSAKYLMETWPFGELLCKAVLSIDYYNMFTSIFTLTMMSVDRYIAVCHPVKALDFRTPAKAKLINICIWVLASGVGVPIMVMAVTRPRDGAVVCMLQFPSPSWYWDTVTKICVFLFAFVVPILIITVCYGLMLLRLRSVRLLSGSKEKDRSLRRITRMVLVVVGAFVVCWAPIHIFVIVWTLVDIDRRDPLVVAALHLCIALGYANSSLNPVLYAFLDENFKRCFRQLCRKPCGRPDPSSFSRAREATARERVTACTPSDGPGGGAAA
Protocol: All the reagents were diluted in TrisHCl buffer 50 mM pH 7.4, MgCl2 10 mM, BSA 0.1%, NaCl 10 mM or 100 mM or 300 mM or 500 mM (concentration specified in the legend of each figure), 0 or 0.5 or 1 μM GDP (concentration specified in the legend of each figure). The membranes were prepared 4× for distributing 1 or 10 μg/well (amount specified in the legend of each figure). The nucleotide GTPgS (nonspecific signal condition) was prepared 6.67× to obtain a final concentration in the wells of 100 μM. The test compounds (agonists or antagonists) were prepared 10× to obtain the final concentrations in the wells mentioned in the diagrams. […]
• Membranes expressing the GPCR and the G protein: 5 μL • Buffer or GTPgS nucleotide (for the nonspecific signal condition): 3 μL • Nonhydrolyzable/slowly hydrolyzable GTP analogue—donor or acceptor: 5 μL • anti G-alphai-donor or acceptor ligand: 5 μL • Buffer or test compounds (agonists and/or antagonists): 2 μL. The nonspecific signal (fluorescence background noise) was measured with wells containing an excess of GTPgS (100 μM). Reading the HTRF Signal […]
From the raw signals at 665 nm (for red acceptor—Cy5) or 520 nm (for green acceptors—AF488 or Fluorescein) and 620 nm, the HTRF Ratio was calculated from the following formula: HTRF Ratio=Signal at 665 nm or Signal at 520 nm/Signal at 620 nm*10.000. […]

[1] = molecular target: switch II domain of the alphai G-protein (Homo sapiens, UniProt P63096); assay: Binding site of the anti-G-alphai antibodies
switch II domain of the alphai G-protein, sequence (P63096 whole entry, the tested form may be a part): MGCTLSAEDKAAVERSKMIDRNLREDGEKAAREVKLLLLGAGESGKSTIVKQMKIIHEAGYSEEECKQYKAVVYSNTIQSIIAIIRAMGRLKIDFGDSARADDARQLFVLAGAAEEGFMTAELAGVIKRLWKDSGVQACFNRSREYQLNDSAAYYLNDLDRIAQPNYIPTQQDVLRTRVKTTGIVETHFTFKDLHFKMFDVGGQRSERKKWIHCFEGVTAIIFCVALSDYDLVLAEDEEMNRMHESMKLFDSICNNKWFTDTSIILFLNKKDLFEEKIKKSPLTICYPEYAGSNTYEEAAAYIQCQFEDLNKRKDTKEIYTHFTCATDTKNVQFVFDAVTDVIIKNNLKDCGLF

Row | Molecule | inhibition of activation by agonist SNC162 (decrease in the TR-FRET signal, HTRF Ratio) (Delta Opioid GPCR) | binding site on the alphai G-protein [1]
1 | Oc1ccc2c3c1O[C@H]1c4[nH]c5ccccc5c4C[C@@]4(O)[C@@H](C2)N(CC2CC2)CC[C@]314 [Naltrindole] | inhibited | 
2 | B1 |  | bind at the level of the switch II domain of the alphai G-protein
